Values of other authors as cited in patent US9402854B2, “Pharmaceutical composition” (Cipla Limited, priority 2012, dated 2016).

Details: versus racemic formoterol (contains both (S,S) and (R,R) enantiomers)

SMILES: COc1ccc(C[C@@H](C)NC[C@H](O)c2ccc(O)c(NC=O)c2)cc1 [Arformoterol]
- potency relative to racemic formoterol: two-fold greater potency
